Reference: paper PMC12278462, “Site-selective arylations of nature-inspired flavonoids or steroidal phenols via C—H or O—H activation” (Journal of Enzyme Inhibition and Medicinal Chemistry, 2025)

Columns and labels:
SiHa = assay: MTT antiproliferative assay, SiHa; assay type: cell-based, human; conditions: 72 h
Procedure: (§1) We evaluated the cytotoxic activity of the newly synthesised arylated compounds 13–17 by the MTT assay[37] on a panel of human adherent cancer cell lines. The panel included breast (MCF-7 and MDA MB-231) and cervical (HeLa, SiHa and C33A) cancer cell lines differing in receptorial or HPV status. Tumour selectivity was determined on the NIH/3T3 mouse fibroblast cell line.
(§2) Briefly, the panels of breast and cervical cancerous cell lines, differing by their receptorial and HPV status were used, precisely MCF-7 (ER, PR and HER2 positive) and MDA-MB-231 (TNBC) breast carcinoma and HeLa (HPV18+), SiHa (HPV16+), C33A (HPV-) cervical carcinoma cells. Non-cancerous NIH/3T3 mouse fibroblast cell line was used for selectivity study. MCF-7, MDA-MB-231, Hela and NIH/3T3 cell lines were purchased from ECACC (European Collection of Cell Cultures, Salisbury, UK), while SiHa and C33A from ATCC (American Tissue Culture Collection, LGC Standards GmbH, Wesel, Germany). Cells were maintained in Eagle's Minimum Essential Medium (EMEM, Capricorn Scientific GmbH, Ebsdorfergrund, Germany) supplemented with 10% heat-inactivated fetal bovine serum (FBS), 1% non-essential amino acids (NEAA), and 1% antibiotic-antimycotic mixture (penicillin–streptomycin). The cells were maintained at 37 °C in a humidified atmosphere containing 5% CO2.
(§3) For measurements cells were seeded for 96-well plates at a density of 5 000/well, except for C33A, which was seeded in 10 000cells for each well. After overnight standing cells were treated with 10 and 30 µM solutions for screening and increasing concentrations (0.1-30.0 µM) of the test compounds were used for concentration-response curves. After incubation for 72 hours under cell culturing condition 5 mg/ml MTT (3-(4,5-[…])-2,5-diphenyl-2H-tetrazolium bromide) solution was added for another 4 h. The precipitated formazan crystals were solubilized in DMSO and the absorbance was measured at 545 nm with a microplate reader (BMG Labtech, Ortenberg, Germany). Wells with untreated cells were utilized as control, and inhibition % were calculated by GraphPad Prism v 9.0 software (GraphPad Software, San Diego, CA, USA). If the growth-inhibition exceeded 70% at 30 µM concentration during the screening concentration-response curves were fitted and IC50 values were calculated by GraphPad Prism v 9.0. The experiments were performed with five parallel wells for each experimental condition and repeated at least twice.

MCF-7 = assay: MTT antiproliferative assay, MCF-7; assay type: cell-based, human; conditions: 72 h
Procedure: as §1, §2, §3

MDA-MB-231 = assay: MTT antiproliferative assay, MDA-MB-231; assay type: cell-based, human; conditions: 72 h
Procedure: as §1, §2, §3

HeLa = assay: MTT antiproliferative assay, HeLa; assay type: cell-based, human; conditions: 72 h
Procedure: as §1, §2, §3

[1] = test system: NIH/3T3 mouse fibroblast cell line; assay: MTT assay, tumour selectivity on non-cancerous fibroblasts; assay type: cell-based; conditions: 72 h
Procedure: as §1, §2, §3

C33A = assay: MTT antiproliferative assay, C33A; assay type: cell-based, human; conditions: 72 h
Procedure: as §1, §2, §3

17β-HSD1 = target: T1, 17β-HSD1 (Homo sapiens, UniProt P14061); assay: 17β-HSD1 enzymatic assay (E1 to E2, LC-MS/MS); assay type: biochemical; conditions: read-out: 17β-HSD1 Inhibition (% ± SD); for inhibition at 10 µM: 10 µM test concentration; for inhibition at 100 µM: 100 µM test concentration
T1 sequence (P14061 1-328): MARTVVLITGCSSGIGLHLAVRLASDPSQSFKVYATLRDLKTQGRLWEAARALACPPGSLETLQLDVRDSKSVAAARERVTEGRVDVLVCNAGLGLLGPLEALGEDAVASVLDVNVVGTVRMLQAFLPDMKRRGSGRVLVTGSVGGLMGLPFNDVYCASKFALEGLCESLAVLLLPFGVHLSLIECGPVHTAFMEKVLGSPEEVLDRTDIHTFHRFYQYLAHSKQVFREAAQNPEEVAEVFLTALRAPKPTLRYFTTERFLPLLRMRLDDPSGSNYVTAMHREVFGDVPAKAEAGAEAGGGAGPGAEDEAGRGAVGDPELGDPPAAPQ
Procedure: The bacterial homogenate of E. coli overexpressing HSD17B1 was previously prepared as described in references ^S2,S3, and stored in aliquots at -80 °C. Before conducting experiments, aliquots were quickly thawed and diluted twice with 100 mM sodium phosphate buffer (pH 6.5; #14457, #1411007, Kemika), then kept on ice. The enzymatic assay was performed as described in ^S3. Briefly, a 1 mL enzymatic reaction mixture was prepared in 2 mL microcentrifuge tubes with the following components: 10 µL of the test inhibitor dissolved in dimethyl sulfoxide (DMSO; #276855, Sigma Aldrich) or 10 µL of DMSO for control samples, 5 µL of 14 µM substrate estrone (E1; CAS 53-16-7; #E2300-000, Steraloids), 10 µL of 10 mM NADPH (#AE14, Carl Roth) prepared in 100 mM sodium phosphate buffer, and 965 µL of 100 mM sodium phosphate buffer (pH 6.5). The reaction mixture was mixed thoroughly before adding 10 µL of bacterial homogenate. Immediately after addition, the tubes were transferred to an Eppendorf thermoshaker (#5382000031, Eppendorf) and incubated at 37 °C for 10 minutes. To stop the reaction, 60 µL of 1.26 M ascorbic acid (#A92902, Sigma Aldrich) in methanol (#34966, Honeywell/Riedel-de Haen) /acetic acid (#1.00063, Merck) (99:1, v/v) was added. The samples were then immediately processed using solid-phase extraction (SPE). The assay was repeated in three independent experiments, with each experiment performed in technical duplicate.
The preparation of samples for liquid chromatography-tandem mass spectrometry (LC-MS/MS) involved SPE. Stock solutions of E1 and 17β-estradiol (E2; CAS: 50-28-2; #142406, Steraloids) were prepared gravimetrically and dissolved in methanol (#34966, Honeywell/Riedel-de Haen). A working calibrator solution containing both steroids was then prepared by mixing appropriate volumes of the stock solutions in methanol to achieve a final concentration of 1 µg/mL for each steroid. Eight-point calibration curves (excluding zero and blank) were prepared in 100 mM sodium phosphate buffer (pH 6.5). For each 1 mL reaction mixture or calibrator, 10 µL of 100 ng/mL internal standard solution containing [2,3,4-13C3]-17β-estradiol (#719552, Sigma Aldrich) was added. Samples were mixed thoroughly and incubated at room temperature for 15 minutes.
SPE was performed using Strata X 33 µm polymeric reversed-phase columns (30 mg/mL tubes; #8B-S100-TAK, Phenomenex). The procedure involved the following steps: column conditioning with 1 mL of methanol, column equilibration with 1 mL of H₂O (#1.15333, Supelco), sample loading (1 mL sample or calibrator), column washing with 1 mL of H₂O, column drying under high vacuum for 10 minutes, and finally elution with 1 mL of methanol directly into HPLC glass vials (#702713, Macherey-Nagel GmbH/Co). The eluted samples were stored at -20 °C until LC-MS/MS analysis.

`C[C@@]12CC[C@@H]3c4c(cc(OCc5cn(Cc6ccccc6)nn5)cc4-c4ccc(Br)cc4)CC[C@H]3[C@@H]1CCC2=O` [compound 16, 3-[{1-Benzyl-1H-1,2,3-triazol-4-yl}methoxy]-1-(4-bromophenyl)-13a-estra-1,3,5 (10)-trien-17-one] gave an inhibition at 10 µM (SiHa; Homo sapiens, SiHa, 10 µM) of less than 10%, an inhibition at 30 µM (SiHa; Homo sapiens, SiHa, 30 µM) of 10.4% and an inhibition at 10 µM (MCF-7; Homo sapiens, MCF7, 10 µM) of less than 10%. It also gave an inhibition at 30 µM (MCF-7; Homo sapiens, MCF7, 30 µM) of less than 10%, an inhibition at 10 µM (MDA-MB-231; Homo sapiens, MDA-MB-231, 10 µM) of less than 10% and an inhibition at 30 µM (MDA-MB-231; Homo sapiens, MDA-MB-231, 30 µM) of less than 10%. For the same molecule, the inhibition at 10 µM (HeLa; Homo sapiens, HeLa, 10 µM) was 22.4%, the inhibition at 30 µM (HeLa; Homo sapiens, HeLa, 30 µM) was 33.1% and the inhibition at 10 µM ([1]; Mus musculus, NIH3T3, 10 µM) was less than 10%. The inhibition at 30 µM ([1]; Mus musculus, NIH3T3, 30 µM) was 11.2%, the inhibition at 10 µM (C33A; Homo sapiens, C-33-A, 10 µM) was less than 10% and the inhibition at 30 µM (C33A; Homo sapiens, C-33-A, 30 µM) was less than 10%.
`N.N.[Cl][Pt][Cl]` [Cisplatin, reference compound] was tested, and the IC50 (SiHa; read-out: calculated IC50 SiHa) was 7.8 µM, the IC50 (MCF-7; read-out: calculated IC50 MCF-7) was 5.8 µM and the IC50 (MDA-MB-231; read-out: calculated IC50 MDA-MB-231) was 19.1 µM. The IC50 (HeLa; read-out: calculated IC50 HeLa) was 12.4 µM, the IC50 ([1]; read-out: calculated IC50 NIH/3T3) was 4.7 µM and the IC50 (C33A; read-out: calculated IC50 C33A) was 3.7 µM.
`C[C@]12CC[C@H]3C(=CCc4cc(O)ccc43)[C@@H]1CCC2=O` [Equilin, reference compound] gave an inhibition at 10 µM (17β-HSD1) of 85.9 ± 1.6%.
In the case of `C[C@@]12CC[C@@H]3c4cc(-c5ccccc5)c(O)cc4CC[C@H]3[C@@H]1CCC2=O` [2-Ph], the inhibition at 10 µM (17β-HSD1) is reported as 54 ± 7.8% and the inhibition at 100 µM (17β-HSD1) is reported as 59.4 ± 7.8%.
Work on `C[C@@]12CC[C@@H]3c4ccc(O)c(-c5ccccc5)c4CC[C@H]3[C@@H]1CCC2=O` [4-Ph, reference compound] yielded an inhibition at 10 µM (17β-HSD1) of 41.4 ± 0.2% and an inhibition at 100 µM (17β-HSD1) of 52.1 ± 17.4%.
